# Laboratory results taken from US20020059032A1, “Rational selection of putative peptides from identified nucleotide or peptide sequences” (priority 1999, published 2002).
# Where a SMILES comes first, the peptide text is derived from it.
# Target: guinea pig brain membranes
# Experiment: Binding test with guinea pig brain membranes
# Details: tested on guinea pig brain membranes; read-out: IC50 = 100 μM
# Procedure: Binding Assay Alternative Protocol by Skatron
# The experimental conditions are identical for all the binding assay protocols except for the fact that: i) the volume R in operation is 200 μl; ii) the test carried out in 96-well Falcon plates iii) the reaction is directly stopped by filtration on filterMat (ref. 11734) Skatron and the radioactivity associated with the filtrate is evaluated: either directly with a γ counter for the peptides labelled with […]: or with a […] in the presence of 5 ml of scintillating liquid.
# Membrane Preparations of Guinea Pig Brains and Binding Assay
# The guinea pigs are sacrificed by rupturing their cervical vertibrae, decapitated, and the brains are removed very rapidly and placed into a sucrose-Tris-HCl buffer (0.32 M sucrose 5 mM, Tris-HCl, 0.1 g/l bacitracin) at 4° C. (about 10 ml of buffer per brain). The brains are then homogenized using a Potter device and the homogenate is placed in incubation for 30 minutes at 37° C. under agitation, then centrifuged twice for 35 minutes at 100,000×g at 4° C. The protein content of the membrane preparations is evaluated according to the Bradford method (BioRad, according to the manufacturers protocol).
# Bonding of Labelled Agonists to the Guinea Pig Brain Membrane Preparation The membranes are placed in a buffer (50 mM of Tris-HCl, 5 mM of MgCl2 and 0.1 g/l of bacitracin) at the desired protein concentration (iodized CCK bond, 0.1 mg of protein/ml; iodized gastrin bond: 0.5 mg of proteins/ml). They are then incubated in the presence of a labelled ligand in a total volume of 500 μl (about 10 pM for the iodized CCK8, 20 pM for the iodized gastrin13), 50-80 minutes at 25° C., and in the presence or absence of cold agonists. The reaction is stopped with 3 ml of additional BSA buffer (20 g/l) at 4° C., the tubes are centrifuged at 10,000×g, the supernatant is drawn off and the radioactivity associated with the precipitate is evaluated with a γ counter.
row,IC50 [nM],Structure (SMILES)
1,500,"CC[C@H](C)[C@H](NC(=O)[C@@H]1CCCN1C(=O)[C@H](CCC(=O)O)NC(=O)[C@H](CC(=O)O)NC(=O)[C@@H](NC(=O)CNC(=O)[C@H](CCC(=O)O)NC(=O)[C@H](Cc1ccccc1)NC(=O)[C@H](CC(=O)O)NC(=O)[C@@H](NC(=O)[C@@H](N)CC(=O)O)C(C)C)[C@@H](C)O)C(=O)N[C@@H](Cc1ccccc1)C(N)=O [Example 38, H-DVDFEGTDEPIF-NH2] (H-DVDFEGTDEPIF-NH2)"
2,730,"CC[C@H](C)[C@H](NC(=O)[C@H](C)NC(=O)[C@@H](NC(=O)[C@H](CCC(=O)O)NC(=O)[C@H](CCC(=O)O)NC(=O)[C@@H](NC(=O)CNC(=O)[C@H](Cc1ccccc1)NC(=O)[C@@H](NC(=O)[C@H](CC(=O)O)NC(=O)[C@@H](N)[C@@H](C)O)[C@@H](C)CC)C(C)C)[C@@H](C)O)C(N)=O [Example 56, H-TDIFGVEETAI-NH2] (H-TDIFGVEETAI-NH2)"
3,1470,"CSCC[C@H](NC(=O)[C@H](C)NC(=O)[C@H](CCCCN)NC(=O)[C@H](CC(N)=O)NC(=O)[C@H](C)NC(=O)[C@H](CCC(=O)O)NC(=O)[C@H](CCC(=O)O)NC(=O)[C@H](CCCCN)NC(=O)[C@H](C)NC(=O)[C@H](CC(=O)O)NC(=O)[C@H](CCC(N)=O)NC(=O)[C@H](CCC(=O)O)NC(=O)[C@H](C)NC(=O)[C@@H](N)Cc1ccccc1)C(N)=O [Example 48, H-FAEQDAKEEANKAM-NH2] (H-FAEQDAKEEANKAM-NH2)"
4,50,"CSCC[C@H](NC(=O)[C@H](CO)NC(=O)[C@H](CCSC)NC(=O)[C@H](CO)NC(=O)[C@H](CC(=O)O)NC(=O)[C@H](CCCCN)NC(=O)[C@H](CC(N)=O)NC(=O)[C@H](CCC(N)=O)NC(=O)[C@H](CCCNC(=N)N)NC(=O)[C@@H](NC(=O)[C@H](CCCCN)NC(=O)[C@@H](N)CCSC)[C@@H](C)O)C(=O)N[C@@H](CCCNC(=N)N)C(=O)N[C@@H](CO)C(N)=O [Example 43, H-MKTRQNKDSMSMRS-NH2] (H-MKTRQNKDSMSMRS-NH2)"
5,25,"CC(C)C[C@H](NC(=O)[C@H](CO)NC(=O)[C@H](Cc1c[nH]cn1)NC(=O)[C@H](CO)NC(=O)[C@H](CO)NC(=O)[C@@H](N)CO)C(=O)N[C@@H](CO)C(=O)N[C@@H](Cc1c[nH]cn1)C(=O)N[C@@H](CCCCN)C(N)=O [Example 68, H-SSSHSLSHK-NH2] (H-SSSHSLSHK-NH2)"
6,160,"CSCC[C@H](N)C(=O)NCC(=O)N[C@@H](CCCCN)C(=O)N[C@@H](Cc1c[nH]c2ccccc12)C(=O)N[C@@H](Cc1c[nH]cn1)C(=O)N[C@H](C(=O)NCC(N)=O)C(C)C [Example 67, H-MGKWHVG-NH2] (H-MGKWHVG-NH2)"
7,20,"CC[C@H](C)[C@H](NC(=O)[C@@H](N)C(C)C)C(=O)N[C@@H](CCC(N)=O)C(=O)N[C@@H](Cc1ccc(O)cc1)C(=O)N[C@@H](CC(C)C)C(=O)N[C@@H](C)C(=O)N[C@@H](Cc1c[nH]cn1)C(=O)N[C@H](C(=O)N[C@@H](C)C(=O)N[C@@H](CO)C(=O)N[C@@H](CO)C(=O)N[C@@H](Cc1c[nH]cn1)C(=O)N[C@@H](CCCCN)C(N)=O)C(C)C [Example 63, H-VIQYLAHVASSHK-NH2] (H-VIQYLAHVASSHK-NH2)"
8,60,"CC(C)[C@H](NC(=O)[C@H](C)NC(=O)[C@@H](NC(=O)[C@@H](NC(=O)[C@H](C)NC(=O)[C@@H](NC(=O)[C@@H](N)CCC(N)=O)[C@@H](C)O)C(C)C)[C@@H](C)O)C(=O)N[C@@H](CCC(=O)O)C(=O)N[C@@H](CCCCN)C(=O)N1CCC[C@H]1C(=O)N[C@@H](C)C(=O)N[C@@H](CC(=O)O)C(=O)N[C@@H](CCCCN)C(N)=O [Example 57, H-QTAVTAVEKPADK-NH2] (H-QTAVTAVEKPADK-NH2)"

# Second part, the compound before the results:
row,Structure (SMILES),IC50 [nM]
1,"CSCC[C@H](NC(=O)CNC(=O)[C@H](Cc1ccccc1)NC(=O)[C@H](CC(=O)O)NC(=O)[C@H](CCCNC(=N)N)NC(=O)[C@H](CCSC)NC(=O)[C@@H](NC(=O)[C@@H](NC(=O)[C@@H](NC(=O)[C@H](CO)NC(=O)[C@@H](N)Cc1ccccc1)C(C)C)[C@@H](C)O)[C@@H](C)O)C(N)=O [Example 16, H-FSVTTMRDFGM-NH2] (H-FSVTTMRDFGM-NH2)",80
2,"CC[C@H](C)[C@H](NC(=O)[C@H](Cc1c[nH]cn1)NC(=O)[C@@H](N)CC(C)C)C(=O)N[C@@H](CO)C(=O)N[C@@H](Cc1c[nH]cn1)C(=O)N[C@@H](CC(=O)O)C(=O)N[C@@H](CCSC)C(=O)N[C@H](C(=O)NCC(=O)N1CCC[C@H]1C(=O)N[C@@H](CC(=O)O)C(N)=O)[C@@H](C)O [Example 19, H-LHISHDMTGPD-NH2] (H-LHISHDMTGPD-NH2)",700
3,"CC[C@H](C)[C@H](NC(=O)[C@H](C)NC(=O)[C@@H](NC(=O)[C@H](CCC(=O)O)NC(=O)[C@H](CCC(=O)O)NC(=O)[C@@H]1CCCN1C(=O)[C@H](Cc1ccccc1)NC(=O)[C@@H](N)CC(=O)O)C(C)C)C(=O)N[C@H](C(=O)N[C@@H](CCC(=O)O)C(=O)N[C@@H](CCC(=O)O)C(=O)N[C@@H](CC(C)C)C(N)=O)C(C)C [Example 9, H-DFPEEVAIVEEL-NH2] (H-DFPEEVAIVEEL-NH2)",220
4,"CSCC[C@H](NC(=O)[C@@H](N)CC(=O)O)C(=O)N[C@H](C(=O)N[C@H](C(=O)N[C@@H](Cc1ccccc1)C(=O)N[C@@H](CC(C)C)C(=O)N[C@@H](CC(=O)O)C(=O)NCC(=O)NCC(=O)N[C@@H](CCC(N)=O)C(=O)N[C@@H](CC(C)C)C(=O)NCC(=O)N[C@H](C(=O)N[C@@H](CC(C)C)C(=O)N[C@H](C(N)=O)C(C)C)[C@@H](C)O)C(C)C)C(C)C [Example 18, H-DMVVFLDGGQLGTLV-NH2] (H-DMVVFLDGGQLGTLV-NH2)",800
5,"C[C@H](NC(=O)[C@H](CCC(=O)O)NC(=O)[C@@H]1CCCN1C(=O)[C@H](CCC(N)=O)NC(=O)[C@H](Cc1ccccc1)NC(=O)[C@H](CO)NC(=O)[C@H](CO)NC(=O)[C@@H](N)CCC(=O)O)C(=O)NCC(=O)N[C@@H](Cc1ccccc1)C(N)=O [Example 24, H-ESSFQPEAGF-NH2] (H-ESSFQPEAGF-NH2)",230
6,"CC[C@H](C)[C@H](NC(=O)[C@H](CO)NC(=O)[C@H](Cc1ccccc1)NC(=O)[C@@H](N)CO)C(=O)N[C@H](C(=O)NCC(=O)N[C@@H](CC(=O)O)C(=O)N[C@@H](Cc1ccccc1)C(=O)N[C@@H](CCC(N)=O)C(=O)N[C@@H](CC(N)=O)C(N)=O)[C@@H](C)CC [Example 30, H-SFSIIGDFQN-NH2] (H-SFSIIGDFQN-NH2)",27000
7,"CC[C@H](C)[C@H](NC(=O)CNC(=O)[C@H](CCC(=O)O)NC(=O)[C@H](CC(C)C)NC(=O)[C@@H](N)CO)C(=O)N[C@@H](Cc1ccccc1)C(=O)N[C@@H](CC(=O)O)C(=O)N[C@@H](CC(=O)O)C(=O)N[C@H](C(=O)N[C@H](C(=O)N1CCC[C@H]1C(=O)N[C@@H](CC(=O)O)C(N)=O)C(C)C)[C@@H](C)CC [Example 20, H-SLEGIFDDIVPD-NH2] (H-SLEGIFDDIVPD-NH2)",350
8,"CC[C@H](C)[C@H](NC(=O)[C@@H]1CCCN1C(=O)CNC(=O)CN)C(=O)N[C@@H](CO)C(=O)N[C@@H](Cc1ccccc1)C(=O)N[C@@H](CO)C(=O)N[C@@H](CO)C(=O)N[C@@H](CO)C(=O)N[C@@H](CCCNC(=N)N)C(=O)N[C@@H](CO)C(N)=O [Example 25, H-GGPISFSSSRS-NH2] (H-GGPISFSSSRS-NH2)",310
9,"CC[C@H](C)[C@H](NC(=O)[C@H](CO)NC(=O)[C@@H](N)Cc1ccccc1)C(=O)N[C@@H](C)C(=O)N[C@H](C(=O)N[C@@H](CC(C)C)C(=O)N[C@@H](CCCNC(=N)N)C(=O)N[C@@H](CC(=O)O)C(=O)N[C@@H](Cc1ccccc1)C(=O)NCC(=O)N[C@H](C(N)=O)C(C)C)[C@@H](C)O [Example 15, H-FSIATLRDFGV-NH2] (H-FSIATLRDFGV-NH2)",360
10,"CSCC[C@H](NC(=O)[C@H](CC(C)C)NC(=O)CNC(=O)[C@H](Cc1ccccc1)NC(=O)[C@H](Cc1ccccc1)NC(=O)[C@H](CCC(N)=O)NC(=O)[C@H](CCC(N)=O)NC(=O)[C@@H]1CCCN1C(=O)[C@H](CCCCN)NC(=O)[C@@H]1CCCN1C(=O)[C@@H](N)Cc1ccc(O)cc1)C(N)=O [Example 64, H-YPKPQQFFGLM-NH2] (H-YPKPQQFFGLM-NH2)",1
11,"CC(C)C[C@H](NC(=O)[C@H](CCC(=O)O)NC(=O)[C@H](CC(=O)O)NC(=O)[C@H](CC(C)C)NC(=O)[C@@H](NC(=O)[C@H](Cc1ccccc1)NC(=O)[C@H](C)NC(=O)[C@H](Cc1c[nH]cn1)NC(=O)[C@H](CO)NC(=O)[C@H](CO)NC(=O)[C@@H](N)CC(=O)O)[C@@H](C)O)C(=O)N[C@@H](CCCNC(=N)N)C(N)=O [Example 17, H-DSSHAFTLDELR-NH2] (H-DSSHAFTLDELR-NH2)",680
12,"CC[C@H](C)[C@H](NC(=O)[C@H](CCC(=O)O)NC(=O)[C@H](C)NC(=O)[C@@H](N)C(C)C)C(=O)N[C@@H](CCC(N)=O)C(=O)NCC(=O)N[C@@H](Cc1c[nH]cn1)C(=O)N[C@@H](C)C(=O)NCC(N)=O [Example 32, H-VAEIQGHAG-NH2] (H-VAEIQGHAG-NH2)",200
13,"CC(C)C[C@H](NC(=O)[C@H](C)NC(=O)CNC(=O)[C@@H](NC(=O)[C@@H](N)CCCNC(=N)N)[C@@H](C)O)C(=O)N[C@H](C(=O)N[C@@H](CC(C)C)C(=O)N[C@@H](CO)C(=O)N[C@@H](CCCNC(=N)N)C(=O)NCC(N)=O)C(C)C [Example 23, H-RTGALVLSRG-NH2] (H-RTGALVLSRG-NH2)",1300
